Measurements as given in ChEMBL document CHEMBL3885861, “Open TG-GATES”.

Species on record: Rattus norvegicus
Test: Open TG-GATES - Regimen: Single
Format: toxicity, organism-based, Sprague-Dawley
Set-up: regimen Single, gender Male, age 6 weeks
Conditions: in vivo, po, route gavage; for Bas / Eos / Fbg / Hb / Ht / Lym / MCHC / Mono / Plat / RBC / Ret / WBC / MCH / Neu / PT: tissue Blood; for KIDNEY_L / KIDNEY_R / KIDNEY_TOTAL: tissue Kidney; for LIVER: tissue Liver
[1] = 40 mg/kg, 24 h, tissue Plasma, dose level Low
[2] = 120 mg/kg, 3 h, dose level Middle
[3] = 120 mg/kg, 3 h, tissue Plasma, dose level Middle
[4] = 120 mg/kg, 6 h, dose level Middle
[5] = 120 mg/kg, 6 h, tissue Plasma, dose level Middle
[6] = 120 mg/kg, 9 h, dose level Middle
[7] = 120 mg/kg, 9 h, tissue Plasma, dose level Middle
[8] = 120 mg/kg, 24 h, dose level Middle
[9] = 120 mg/kg, 24 h, tissue Plasma, dose level Middle
[10] = 400 mg/kg, 3 h, dose level High
[11] = 400 mg/kg, 3 h, tissue Plasma, dose level High
[12] = 400 mg/kg, 6 h, dose level High
[13] = 400 mg/kg, 6 h, tissue Plasma, dose level High
[14] = 400 mg/kg, 9 h, dose level High
[15] = 400 mg/kg, 9 h, tissue Plasma, dose level High
[16] = 400 mg/kg, 24 h, dose level High
[17] = 400 mg/kg, 24 h, tissue Plasma, dose level High

**Q.** What does the source list for CCC(C)(C)C(=O)O[C@H]1C[C@@H](C)C=C2C=C[C@H](C)[C@H](CC[C@@H]3C[C@@H](O)CC(=O)O3)[C@H]21 [SIMVASTATIN]?
**A.** TC [1]: 80.8 mg/dL; TG [1]: 87.4 mg/dL; TP [1]: 5.4 g/dL; gamma-GTP [1]: 1.8 IU/L; TERMINAL_BW [2]: 200.4 g; Bas [2]: 0%; Eos [2]: 1%; Fbg [2]: 194.4 mg/dL; Hb [2]: 12.5 g/dL; Ht [2]: 37.9%; Lym [2]: 81.8%; MCHC [2]: 32.9%; Mono [2]: 6.4%; Plat [2]: 111.3 x10_4/uL; RBC [2]: 573.6 x10_4/ul; Ret [2]: 9.1%; WBC [2]: 131.2 x10_2/uL; KIDNEY_L [2]: 0.9 g; KIDNEY_R [2]: 1 g; KIDNEY_TOTAL [2]: 1.9 g; LIVER [2]: 9.6 g; ALP [3]: 1022 IU/L; ALT [3]: 34.2 IU/L; AST [3]: 66.6 IU/L; BUN [3]: 11.6 mg/dL; CRE [3]: 0.5 mg/dL; DBIL [3]: 0.032 mg/dL; IP [3]: 8.9 mg/dL; K [3]: 4.7 meq/L; LDH [3]: 117.2 IU/L; Na [3]: 137.8 meq/L; PL [3]: 134.8 mg/dL; RALB [3]: 3.5 g/dL; TBIL [3]: 0.3 mg/dL; TC [3]: 74 mg/dL; TG [3]: 56 mg/dL; TP [3]: 5.5 g/dL; gamma-GTP [3]: 1.6 IU/L; TERMINAL_BW [4]: 200.1 g; Bas [4]: 0%; Eos [4]: 0.6%; Fbg [4]: 203.2 mg/dL; Hb [4]: 12.9 g/dL; Ht [4]: 39.4%; Lym [4]: 77.6%; MCH [4]: 21.6 pg; MCHC [4]: 32.9%; Mono [4]: 6%; Neu [4]: 15.8%; PT [4]: 11.9 s; Plat [4]: 114.7 x10_4/uL; RBC [4]: 600.4 x10_4/ul; Ret [4]: 8.4%; WBC [4]: 123.6 x10_2/uL; KIDNEY_L [4]: 0.9 g; KIDNEY_R [4]: 0.9 g; KIDNEY_TOTAL [4]: 1.8 g; LIVER [4]: 8.9 g; ALP [5]: 912.2 IU/L; ALT [5]: 28.6 IU/L; AST [5]: 57.2 IU/L; CRE [5]: 0.5 mg/dL; DBIL [5]: 0.086 mg/dL; IP [5]: 9.6 mg/dL; K [5]: 4.5 meq/L; LDH [5]: 94 IU/L; Na [5]: 137.6 meq/L; PL [5]: 119 mg/dL; RALB [5]: 3.5 g/dL; TBIL [5]: 0.4 mg/dL; TC [5]: 66.4 mg/dL; TG [5]: 44 mg/dL; TP [5]: 5.4 g/dL; gamma-GTP [5]: 1.4 IU/L; TERMINAL_BW [6]: 199.1 g; Bas [6]: 0%; Eos [6]: 1%; Fbg [6]: 217.2 mg/dL; Hb [6]: 12.9 g/dL; Ht [6]: 39.5%; Lym [6]: 77%; MCH [6]: 21.6 pg; MCHC [6]: 32.6%; Mono [6]: 6%; Neu [6]: 16.6%; PT [6]: 11.8 s; Plat [6]: 106.6 x10_4/uL; RBC [6]: 598.2 x10_4/ul; Ret [6]: 9%; WBC [6]: 82.6 x10_2/uL; KIDNEY_L [6]: 0.9 g; KIDNEY_R [6]: 0.9 g; KIDNEY_TOTAL [6]: 1.8 g; LIVER [6]: 8.3 g; ALP [7]: 788.6 IU/L; ALT [7]: 30.8 IU/L; AST [7]: 57.4 IU/L; CRE [7]: 0.5 mg/dL; DBIL [7]: 0.026 mg/dL; K [7]: 4.7 meq/L; LDH [7]: 88.2 IU/L; Na [7]: 137.6 meq/L; PL [7]: 119.4 mg/dL; RALB [7]: 3.7 g/dL; TBIL [7]: 0.3 mg/dL; TC [7]: 70.6 mg/dL; TG [7]: 29.6 mg/dL; TP [7]: 5.4 g/dL; gamma-GTP [7]: 1 IU/L; TERMINAL_BW [8]: 207.4 g; Bas [8]: 0%; Eos [8]: 1%; Fbg [8]: 209.2 mg/dL; Hb [8]: 12.8 g/dL; Ht [8]: 39.1%; Lym [8]: 79.2%; MCHC [8]: 32.8%; Mono [8]: 6.2%; Neu [8]: 14%; Plat [8]: 123 x10_4/uL; RBC [8]: 586 x10_4/ul; Ret [8]: 8.3%; WBC [8]: 87 x10_2/uL; KIDNEY_L [8]: 1 g; KIDNEY_R [8]: 1 g; KIDNEY_TOTAL [8]: 2 g; ALP [9]: 811 IU/L; ALT [9]: 44 IU/L; AST [9]: 67.8 IU/L; BUN [9]: 18 mg/dL; CRE [9]: 0.5 mg/dL; DBIL [9]: 0.044 mg/dL; IP [9]: 7.5 mg/dL; K [9]: 4.7 meq/L; LDH [9]: 127.8 IU/L; Na [9]: 139.6 meq/L; PL [9]: 129.4 mg/dL; RALB [9]: 3.9 g/dL; TBIL [9]: 0.4 mg/dL; TC [9]: 69.4 mg/dL; TP [9]: 5.5 g/dL; gamma-GTP [9]: 2.4 IU/L; TERMINAL_BW [10]: 201.6 g; Bas [10]: 0%; Eos [10]: 0.8%; Fbg [10]: 211.2 mg/dL; Hb [10]: 12.2 g/dL; Ht [10]: 37.3%; Lym [10]: 80.4%; MCH [10]: 21.5 pg; MCHC [10]: 32.8%; Mono [10]: 8.4%; Neu [10]: 10.8%; PT [10]: 11.3 s; Plat [10]: 110.1 x10_4/uL; RBC [10]: 569 x10_4/ul; Ret [10]: 10.9%; WBC [10]: 116.1 x10_2/uL; KIDNEY_L [10]: 1 g; KIDNEY_R [10]: 1 g; KIDNEY_TOTAL [10]: 2 g; LIVER [10]: 9.3 g; ALP [11]: 914.4 IU/L; ALT [11]: 30.8 IU/L; AST [11]: 61.6 IU/L; BUN [11]: 11.8 mg/dL; CRE [11]: 0.5 mg/dL; DBIL [11]: 0.062 mg/dL; IP [11]: 8.3 mg/dL; K [11]: 4.7 meq/L; LDH [11]: 107.8 IU/L; Na [11]: 136.8 meq/L; PL [11]: 131.4 mg/dL; RALB [11]: 3.6 g/dL; TBIL [11]: 0.3 mg/dL; TC [11]: 74.2 mg/dL; TG [11]: 37 mg/dL; TP [11]: 5.6 g/dL; gamma-GTP [11]: 1.2 IU/L; TERMINAL_BW [12]: 205 g; Bas [12]: 0%; Eos [12]: 1%; Fbg [12]: 209.4 mg/dL; Hb [12]: 12.5 g/dL; Ht [12]: 38.1%; Lym [12]: 80.8%; MCH [12]: 21.6 pg; MCHC [12]: 32.7%; Mono [12]: 4.2%; Neu [12]: 14.6%; PT [12]: 12.1 s; Plat [12]: 109.4 x10_4/uL; RBC [12]: 578.2 x10_4/ul; Ret [12]: 11%; KIDNEY_L [12]: 1 g; KIDNEY_R [12]: 1 g; KIDNEY_TOTAL [12]: 1.9 g; LIVER [12]: 8.8 g; ALP [13]: 979 IU/L; ALT [13]: 29.4 IU/L; AST [13]: 60.2 IU/L; BUN [13]: 9.8 mg/dL; CRE [13]: 0.5 mg/dL; DBIL [13]: 0.078 mg/dL; IP [13]: 9.6 mg/dL; K [13]: 4.9 meq/L; LDH [13]: 86 IU/L; Na [13]: 137.2 meq/L; PL [13]: 108 mg/dL; RALB [13]: 3.4 g/dL; TBIL [13]: 0.4 mg/dL; TC [13]: 59 mg/dL; TG [13]: 41.2 mg/dL; TP [13]: 5.5 g/dL; gamma-GTP [13]: 1.4 IU/L; TERMINAL_BW [14]: 198.2 g; Bas [14]: 0%; Eos [14]: 0.6%; Fbg [14]: 204.6 mg/dL; Hb [14]: 12.5 g/dL; Ht [14]: 37.7%; Lym [14]: 80.8%; MCHC [14]: 33.1%; Mono [14]: 3.2%; Neu [14]: 15.2%; PT [14]: 12.6 s; Plat [14]: 110.7 x10_4/uL; RBC [14]: 576.4 x10_4/ul; Ret [14]: 9.6%; WBC [14]: 131.2 x10_2/uL; KIDNEY_L [14]: 0.9 g; KIDNEY_R [14]: 0.9 g; KIDNEY_TOTAL [14]: 1.9 g; LIVER [14]: 7.8 g; ALP [15]: 778 IU/L; ALT [15]: 30.2 IU/L; AST [15]: 61.2 IU/L; BUN [15]: 10.2 mg/dL; CRE [15]: 0.6 mg/dL; DBIL [15]: 0.066 mg/dL; GLC [15]: 209 mg/dL; K [15]: 5.2 meq/L; LDH [15]: 86 IU/L; Na [15]: 137.4 meq/L; PL [15]: 100 mg/dL; RALB [15]: 3.5 g/dL; TBIL [15]: 0.3 mg/dL; TC [15]: 56.8 mg/dL; TG [15]: 24 mg/dL; TP [15]: 5.1 g/dL; gamma-GTP [15]: 1.2 IU/L; TERMINAL_BW [16]: 201.5 g; Bas [16]: 0%; Eos [16]: 0.8%; Fbg [16]: 218.6 mg/dL; Hb [16]: 13.9 g/dL; Ht [16]: 42.3%; Lym [16]: 80.6%; MCHC [16]: 32.8%; Mono [16]: 4.6%; Neu [16]: 14.4%; PT [16]: 11.3 s; Plat [16]: 125.3 x10_4/uL; RBC [16]: 647.8 x10_4/ul; Ret [16]: 7.9%; WBC [16]: 86.8 x10_2/uL; KIDNEY_L [16]: 1 g; KIDNEY_R [16]: 1 g; KIDNEY_TOTAL [16]: 1.9 g; LIVER [16]: 9.9 g; ALP [17]: 760.8 IU/L; ALT [17]: 99 IU/L; AST [17]: 81.6 IU/L; BUN [17]: 15.2 mg/dL; CRE [17]: 0.6 mg/dL; DBIL [17]: 0.07 mg/dL; IP [17]: 7.1 mg/dL; K [17]: 5.2 meq/L; LDH [17]: 117.6 IU/L; Na [17]: 137.4 meq/L; PL [17]: 93.6 mg/dL; RALB [17]: 3.8 g/dL; TBIL [17]: 0.4 mg/dL; TC [17]: 53.6 mg/dL; TG [17]: 38.4 mg/dL; TP [17]: 5.4 g/dL; gamma-GTP [17]: 1.4 IU/L
